Test results as given in patent US11648289B2, “Antibacterial method” (priority 2016, dated 2023).
No end group written: not given here.

Columns and labels:
S. pseudointermedius (3) = details: S. pseudointermedius (3), Table 6B
Outline: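 Strains were grown in BHI medium at 30° C. without shaking and exposed to bacteriocin in microtitre plates for 8 h at 30° C. Growth was followed by A600 every 15 min. MIC is the bacteriocin concentration inhibiting growth of the indicator strain by at least 50% versus the untreated control culture.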

SP 4014 = test: organism not typed; details: SP 4014 (S. pseudointermedius)
Experimental: (§1) All the strains (see below) used in minimal inhibitory concentration (MIC) assays (Ovchinnikov et al., 2017, Front Microbiol., 8, p774, doi:10.3389/fmicb.2017.00774) were grown in BHI medium (Oxoid) at 30° C. without shaking. The tested strains were obtained from the LMG collection. […] NisinZ and micrococcin P1 were purified from source. Synthesized peptides were solubilized to concentrations of 10.0-0.1 mg/ml in 0.1% (vol/vol) trifluoroacetic acid and stored at −20° C. until use. Garvicin KS is made up of 3 peptides:
(§2) Bacteriocin activity was determined using a microtitre plate assay. The plates were incubated at 30° C. for 8 h and the growth was measured spectrophotometrically at 600 nm (A600) with 15 min intervals using SPECTROstarNano (BMG LABTECH, Germany). The MIC was defined as the bacteriocin concentration that inhibited the growth of the indicator strain by at least 50% in 200 μl culture (i.e., 50% of the turbidity of the control culture without bacteriocin).

SP 4013 = test: organism not typed; details: SP 4013 (S. pseudointermedius)
Experimental: as §1, §2

SP 4012 = test: organism not typed; details: SP 4012 (S. pseudointermedius)
Experimental: as §1, §2

SH 4015 = test: microbe, parasite or virus in culture; details: SH 4015 (S. haemolyticus)
Experimental: as §1, §2

Sa3323 = test: microbe, parasite or virus in culture; details: Sa3323 (S. aureus)
Experimental: as §1, §2

Sa3324 = test: microbe, parasite or virus in culture; details: Sa3324 (S. aureus)
Experimental: as §1, §2

Sa 3242 = test: microbe, parasite or virus in culture; details: Sa 3242 (S. aureus)
Experimental: as §1, §2

Sa 3328 = test: microbe, parasite or virus in culture; details: Sa 3328 (S. aureus)
Experimental: as §1, §2

Sa ATCC 33591 = test: microbe, parasite or virus in culture; details: Sa ATCC 33591 (S. aureus)
Experimental: as §1, §2

SH 4016 = test: microbe, parasite or virus in culture; details: SH 4016 (S. haemolyticus)
Experimental: as §1, §2

[1] = system: E. faecalis LMGT3358 resistant mutants
Outline: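 Growth inhibition of indicator bacteria, cultivated statically in BHI medium at 30° C, was measured in microtiter plates. Turbidity reduced to 50% of the bacteriocin-free control defined the MIC.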

MLAKIKAMIKKFPNPYTLAAKLTTYEINWYKQQYGRYPWERPVA [EntEJ97]
MIC (S. pseudointermedius (3)): 12.5 µg/mL | MIC (SP 4014): 12.5 µg/mL | MIC (SP 4013): 12.5 µg/mL | MIC (SP 4012): 12.5 µg/mL | MIC (SH 4015): 12.5 µg/mL | MIC (Sa3323): 6.25 µg/mL | MIC (Sa3324): 12.5 µg/mL | MIC (Sa 3242): 6.25 µg/mL | MIC (Sa 3328): 6.25 µg/mL | MIC (Sa ATCC 33591): >50 µg/mL | MIC (SH 4016): 12.5 µg/mL | resistance of lower resistance (LR) colonies compared to the WT ([1]; five LR colonies of E. faecalis): 16-32 times | resistance of highly resistant (HR) colonies compared to the WT ([1]; seven HR colonies of E. faecalis): at least 500 times
